Laboratory results published in ChEMBL document CHEMBL5465560, “Selectivity Literature for EUbOPEN Chemogenomic Library” (2024).

Columns and labels:
[1] = molecular target: T1, Mitogen-activated protein kinase kinase kinase 19 (Homo sapiens) (UniProt Q56UN5); experiment: Selectivity interaction (KinomeScan (DiscoverX)) EUB0001550a MAP3K19; conditions: at 1 µM
T1 sequence (whole entry): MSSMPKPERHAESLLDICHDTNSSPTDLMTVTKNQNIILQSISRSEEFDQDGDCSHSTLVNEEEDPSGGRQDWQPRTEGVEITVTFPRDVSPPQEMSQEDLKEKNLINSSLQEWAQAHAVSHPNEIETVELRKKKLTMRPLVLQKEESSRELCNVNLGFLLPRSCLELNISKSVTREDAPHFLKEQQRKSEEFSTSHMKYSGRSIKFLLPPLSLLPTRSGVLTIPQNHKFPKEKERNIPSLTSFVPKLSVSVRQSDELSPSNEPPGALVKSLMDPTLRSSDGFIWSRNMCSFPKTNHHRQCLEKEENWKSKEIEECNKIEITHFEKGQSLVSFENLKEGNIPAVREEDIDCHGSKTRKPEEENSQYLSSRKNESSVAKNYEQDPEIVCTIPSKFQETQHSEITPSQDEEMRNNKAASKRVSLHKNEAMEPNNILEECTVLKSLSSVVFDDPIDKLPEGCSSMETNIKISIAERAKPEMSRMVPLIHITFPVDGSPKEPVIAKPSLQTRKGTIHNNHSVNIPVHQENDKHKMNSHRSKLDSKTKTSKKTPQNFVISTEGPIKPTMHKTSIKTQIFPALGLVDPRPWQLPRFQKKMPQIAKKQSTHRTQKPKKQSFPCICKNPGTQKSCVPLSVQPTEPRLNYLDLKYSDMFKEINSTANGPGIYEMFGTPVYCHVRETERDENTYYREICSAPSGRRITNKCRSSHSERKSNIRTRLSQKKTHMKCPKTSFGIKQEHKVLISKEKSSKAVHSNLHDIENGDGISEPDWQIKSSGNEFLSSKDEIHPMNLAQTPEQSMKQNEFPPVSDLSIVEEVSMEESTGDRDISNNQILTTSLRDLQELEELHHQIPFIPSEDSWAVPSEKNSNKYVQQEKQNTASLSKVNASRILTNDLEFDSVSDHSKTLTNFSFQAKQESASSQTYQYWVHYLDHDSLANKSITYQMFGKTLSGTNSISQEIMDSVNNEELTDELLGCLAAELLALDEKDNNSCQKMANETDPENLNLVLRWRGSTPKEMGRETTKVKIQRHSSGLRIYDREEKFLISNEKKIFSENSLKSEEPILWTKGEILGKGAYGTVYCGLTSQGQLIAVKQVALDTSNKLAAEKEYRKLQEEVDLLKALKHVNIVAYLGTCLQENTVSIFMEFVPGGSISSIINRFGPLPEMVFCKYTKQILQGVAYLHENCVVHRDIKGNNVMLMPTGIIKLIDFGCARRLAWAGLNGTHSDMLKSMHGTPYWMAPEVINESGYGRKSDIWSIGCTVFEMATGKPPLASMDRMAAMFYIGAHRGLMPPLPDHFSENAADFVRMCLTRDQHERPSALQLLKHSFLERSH

[2] = molecular target: T2, Ephrin type-A receptor 1 (Homo sapiens) (UniProt P21709); experiment: Selectivity interaction (Kinase panel (Invitrogen)) EUB0000639a EPHA1; conditions: at 200 nM
T2 sequence (whole entry): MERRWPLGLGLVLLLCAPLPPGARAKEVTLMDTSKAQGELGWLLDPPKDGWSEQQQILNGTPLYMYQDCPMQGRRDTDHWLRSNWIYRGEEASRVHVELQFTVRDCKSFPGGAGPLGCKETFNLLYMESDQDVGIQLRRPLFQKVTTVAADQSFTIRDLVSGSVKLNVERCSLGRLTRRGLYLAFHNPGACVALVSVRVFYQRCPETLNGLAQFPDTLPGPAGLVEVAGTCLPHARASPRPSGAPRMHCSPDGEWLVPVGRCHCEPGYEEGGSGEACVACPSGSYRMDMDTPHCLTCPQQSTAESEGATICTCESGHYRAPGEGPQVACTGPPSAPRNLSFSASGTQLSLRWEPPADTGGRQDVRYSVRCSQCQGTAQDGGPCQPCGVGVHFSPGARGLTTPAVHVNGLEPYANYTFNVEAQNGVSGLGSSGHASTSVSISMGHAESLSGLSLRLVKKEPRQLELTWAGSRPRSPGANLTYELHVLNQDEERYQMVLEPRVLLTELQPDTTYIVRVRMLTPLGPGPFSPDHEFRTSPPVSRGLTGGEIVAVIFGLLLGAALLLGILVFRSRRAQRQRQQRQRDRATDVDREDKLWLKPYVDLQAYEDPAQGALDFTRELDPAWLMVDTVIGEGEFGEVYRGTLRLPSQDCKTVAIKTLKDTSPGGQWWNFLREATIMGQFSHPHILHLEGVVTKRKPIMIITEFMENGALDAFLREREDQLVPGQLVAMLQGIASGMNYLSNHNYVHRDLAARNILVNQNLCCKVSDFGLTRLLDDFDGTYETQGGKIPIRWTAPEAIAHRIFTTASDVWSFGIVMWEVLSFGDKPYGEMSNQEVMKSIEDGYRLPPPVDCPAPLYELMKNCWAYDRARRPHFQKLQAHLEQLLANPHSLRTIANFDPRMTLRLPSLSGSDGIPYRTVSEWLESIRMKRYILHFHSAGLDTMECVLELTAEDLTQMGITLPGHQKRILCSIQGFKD

[3] = tested on: Proto-oncogene tyrosine-protein kinase receptor Ret (Homo sapiens), P07949 [V804L]; conditions: at 10 µM
Proto-oncogene tyrosine-protein kinase receptor Ret (Homo sapiens), P07949 [V804L], sequence (P07949 whole entry V804L): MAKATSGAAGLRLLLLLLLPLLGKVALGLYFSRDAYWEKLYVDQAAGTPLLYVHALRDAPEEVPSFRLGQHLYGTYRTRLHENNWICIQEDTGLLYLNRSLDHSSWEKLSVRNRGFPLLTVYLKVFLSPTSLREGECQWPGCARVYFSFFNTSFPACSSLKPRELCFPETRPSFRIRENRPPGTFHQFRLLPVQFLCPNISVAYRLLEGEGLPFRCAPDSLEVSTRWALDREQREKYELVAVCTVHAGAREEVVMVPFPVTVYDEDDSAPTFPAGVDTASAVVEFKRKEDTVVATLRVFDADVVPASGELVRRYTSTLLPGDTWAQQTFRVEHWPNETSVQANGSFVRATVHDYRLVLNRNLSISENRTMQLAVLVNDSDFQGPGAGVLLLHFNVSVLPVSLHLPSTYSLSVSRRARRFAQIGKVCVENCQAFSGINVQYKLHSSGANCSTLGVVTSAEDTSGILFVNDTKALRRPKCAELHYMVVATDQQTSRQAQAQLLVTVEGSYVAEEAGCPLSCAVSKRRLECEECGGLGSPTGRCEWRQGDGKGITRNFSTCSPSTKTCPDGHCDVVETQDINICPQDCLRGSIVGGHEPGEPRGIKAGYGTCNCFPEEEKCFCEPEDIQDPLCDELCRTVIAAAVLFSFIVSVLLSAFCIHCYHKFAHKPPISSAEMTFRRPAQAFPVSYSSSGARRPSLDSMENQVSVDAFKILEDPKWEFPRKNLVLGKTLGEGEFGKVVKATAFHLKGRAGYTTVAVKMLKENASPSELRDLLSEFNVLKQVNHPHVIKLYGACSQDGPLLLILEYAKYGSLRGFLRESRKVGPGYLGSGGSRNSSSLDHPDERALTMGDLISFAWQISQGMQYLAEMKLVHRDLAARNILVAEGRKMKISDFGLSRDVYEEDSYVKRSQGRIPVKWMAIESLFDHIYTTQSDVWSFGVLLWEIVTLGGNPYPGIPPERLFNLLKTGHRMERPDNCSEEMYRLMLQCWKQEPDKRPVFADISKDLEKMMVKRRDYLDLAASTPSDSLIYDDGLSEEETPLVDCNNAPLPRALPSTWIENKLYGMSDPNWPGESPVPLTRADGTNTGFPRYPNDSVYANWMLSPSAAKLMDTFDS

For `CN(C)CC#Cc1ccc2[nH]c3c(c2c1)-c1nc(N)ncc1CCC3`, the % of control [1] was 9.9%.
`CC[C@@H]1[C@H](F)C(=O)N[C@@H]1COc1nccc2cc(C(N)=O)c(OC)cc12` [ZIMLOVISERTIB] was tested, and the % of inhibition [2] was 4.58%.
Molecule `Cc1cc([C@@H](C)Nc2ccccc2C(=O)O)c2nc(N3CCOCC3)cc(=O)n2c1` [AZD-6482] has a % of control [3] of 99%.
